Consider 20 compounds from patent US5955485A, “Use of fused benzothiazoles as neuroprotectants” (Janssen Pharmaceutica, N.V., priority 1995, dated 1999).

Series [1] deals with Human fibroblasts [strain NS]. The series is described as follows: Protection of human fibroblasts against glutathione depletion (survival in cystine/methionine deficient EMEM, 48 hr). The format is cell-based. The note with it: Fibroblast, read-out: EC90 (concentration at which more than 90% of the fibroblasts survive 48 hours after treatment). The procedure:
Human fibroblasts [strain NS] were cultured in cystine/methionine deficient EMEM for 48 hr. In control cultures not receiving any treatment, all cells became necrotic. Cell death was scored by phase contrast microscopy. Table 1 summarizes the EC90 values observed with the compounds of formula (I), i.e. the concentration at which more than 90% of the fibroblasts survive 48 hours after treatment with a compound of formula (I).

For series [2], the system named is C6 glioma cells. The series is described as follows: Glutathione depletion-induced intracellular peroxides in C6 glioma cells (C-DCDHF fluorescence). It counts as cell-based. The note with it: for Level of intracellular peroxides: 1 μM compound + glutamate 10 mM, n ≥ 3 (Table 5); for Level of intracellular peroxides / Intracellular peroxides: mean ± SEM; for Intracellular peroxides: glutamate 10 mM alone, n = 5 (Table 3). The protocol: Fluorescence measurement of intracellular peroxides: Formation of intracellular peroxides was detected using 6-carboxy-2',7'-dichlorodihydrofluorescin diacetate, di(acetoxymethyl ester) (C-DCDHF, Molecular Probes). C-DCDHF was dissolved in DMSO at a concentration of 10 mM and stored at -70° C. under nitrogen. After exposure of the culture to 10 mM glutamate for 14~20 hr, the cells were loaded with 100 μM fluorophore for one hour at 37° C. Medium was aspirated off, PBS was added to the cells, and plates were read in a Cytofluor II micro plate fluorescence reader (PerSeptive Biosystems).Excitation and emission wavelength were selected with a 485/530 nm filter pair. Fluorescence intensity, expressed in relative fluorescence units (rfu)/μg cellular protein was used as index of intracellular peroxides.

The subject of series [3] is primary neuronal (embryonic hippocampal) cultures. The series is described as follows: Survival-rescue of primary embryonic hippocampal cultures in vitE depleted medium (cytoplasmic LDH activity). The format is cell-based, rat. Conditions: for EC50: Rattus norvegicus, mean ± SD (number of dose responses), 50% of survival in vitE supplemented medium. The procedure:
Primary embryonic hippocampal cultures were prepared essentially as described previously (Pauwels, P, Van Aschouw, H. P., Peeters, L., Moeremans, M., Leysen, J. E. 1992. Chronic treatment with sabeluzole protects cultured rat brain neurons from the neurotoxic effects of excitatory amino acids. Synapse, 12:271-280). Hippocampal formations of rats at embryonic day 17 were dissected and dissociated in 0.05% trypsin, 0.1 mg/ml DNase I in DMEM (Dulbecco Modified Eagle Medium). Heat-inactivated horse serum (HS) was added to a concentration of 4%, and the cells were centrifuged, washed with DMEM, and resuspended in DMEM/Ham's F12 (3:1) containing 10% HS. The cells were plated at a density of 4×10^5 cells/cm^2 in poly L-lysine (0.001%) pre-coated multiwell-24 plates. On day 1 in culture, the medium was changed to chemically defined CDM-R12 medium (DMEM-HEPES/Ham's F12 (3:1) containing 0.26% bovine serum albumin, 30 nM sodium selenite, 3 nM 3,3',5 triiodo-L-thyronine, 0.35 μM retinol, 0.3 μM retinol acetate, 2.3 μM DL-a-tocopherol, 2.1 μM DL-α-tocopherol acetate, […] linolenic acid, 3.6 μM linoleic acid, 0.125% human transferrin, 20 nM progesterone, 57.7 nM corticosterone, 49 U/l insulin, 0.4 μM biotin, 10 μM L-carnitine, 83 μM D(+)-galactose, 3.3 μM glutathione, 10 μM ethanolamine, 0.1 mM putrescine; Romijn, H. J., van Huizen, F., Wolters, P. S. 1984. Towards an improved serum-free, chemically defined medium for long-term culturing of cerebral cortex tissue. Neurosci. Behav. Rev., 8:301-334), either with (control) or without DL-α-tocopherol (VitE) and DL-α-tocopherol acetate, in the presence or absence of test compound. […] Addition of compounds could rescue the cultures. Culture survival was measured by means of cytoplasmic LDH activity. The EC50 for survival-rescue in vitE depleted cultures refers to the concentration of the compound required to restore culture survival to 50% of the survival seen for the culture grown in vitE supplemented medium. Seven concentrations of each compound were tested in triplicate, the number of independent experiments is indicated in the table, and the mean EC50 -value ± SD was calculated (Table 2).
Primary neuronal cultures depend on the presence of the antioxidant vitE in the culture medium for survival in vitro. When vitE depleted medium is used to grow the cultures, survival drops to ±20% of control. Compounds with antioxidative properties are able to complement the lack of vitE, and as such can when added to the culture medium, rescue vitE devoid cultures. Several derivatives of formula (I) were tested at 10^-7 M and 10^-6 M in the vitE depletion test on primary neuronal cultures, and were all able to rescue survival of vitE depleted cultures to a certain extent (Table 2).

In series [4] the test system is C6 glioma cells. As to the kind of experiment: Glutathione depletion-induced cell toxicity in C6 glioma cells (LDH release; protection). The note with it: for IC50 / cytotoxicity at 10000 µM: C6 glioma; for IC50: read-out: Protection IC50; for cytotoxicity at 10000 µM: Rattus norvegicus. A general note: Release of lactate dehydrogenase indicates damage to the cell membrane.
Method: Cultures were maintained at 37° C. in an air/5~10% CO2, water saturated atmosphere.
After 8-24 hr, the cultures were switched to culture medium in the absence or presence of the GSH depleting compound glutamate (10 mM).

Series [5] in a line: Plasma levels. It counts as in vivo.
For series [6], the system named is C6 glioma cells. As to the kind of experiment: GSH content in C6 glioma cell culture. It counts as cell-based. Conditions: for GSH level: mean ± SEM, n = 3. The text has this:
The GSH content was deduced from a standard curve ranging from 0.2 to 2 nmol commercial GSH per test (ΔA/min plotted versus concentration).

SMILES strings stand for the structures. Values joined by “and” are separate entries in the source; they are usually repeats but may differ in a detail not shown here. Identical values can stand only once. Like-named read-outs stand apart in the source and are kept apart here.

A word on the EC50: it is the concentration that produces a half-maximal response. As usually defined, the IC50 is the concentration needed to halve the response being measured.

For the compound `CCCNc1ccc2c(c1)SC1=NCCN12` [Compound 1], the EC90 in series [1] amounted to 40000 nM.
Regarding `CNc1ccc2c(c1)SC1=NCCN12` [Compound 2], in series [1], the EC90 worked out at 200000 nM.
For `c1cc2c(cc1NC1CCCCC1)SC1=NCCN12` [Compound 3], the “Level of intracellular peroxides” value in series [2] is listed as 22 ± 2 rfu/μg protein. Also, the EC50 in series [3] is 120 ± 71 nM. Moreover, the half-maximal inhibitory concentration (IC50) in series [4] was 18 ± 3 nM. Besides, the EC90 in series [1] amounted to 40000 nM.
Consider `c1cc2c(cc1NC1CCCC1)SC1=NCCN12` [Compound 4], for which the “Level of intracellular peroxides” value in series [2] came out at 18 ± 2 rfu/μg protein. This compound registered an EC50 in series [3] of 177 ± 59 nM. Further, in series [4], the IC50 amounted to 29 ± 7 nM. For the same compound, the EC90 in series [1] came to 40000 nM.
On to `CC(C)Nc1ccc2c(c1)SC1=NCCN12` [Compound 5], for which the EC90 in series [1] was found to be 40000 nM.
The same measure, in the same setting: the result for `CN(C)c1ccc2c(c1)SC1=NCCN12` [Compound 6] reads 40000 nM.
Regarding `c1cc2c(cc1NC1CCCCCC1)SC1=NCCN12` [Compound 7, N-cycloheptyl-2,3dihydro-imidazo[2,1-b]benzothiazol-7-amine], the IC50 in series [2] (individual values of 2 experiments, read-out: Inhibition of intracellular peroxides IC50) is 28 nM and 71 nM; in series [4], 9 nM. Moreover, the “plasma levels upon reiterated or chronic administration” value in series [5] (reiterated or chronic administration, in words) is recorded as “progressively increase until a steady state is reached”. Also, the “period of effective plasma levels” value in series [5] (two doses (b.i.d.)) came to 24 h. In series [3], this compound had an EC50 of 25 ± 12 nM. In addition, in series [3] (VitE depleted medium), the “complete rescue of primary neuronal cultures grown in VitE depleted medium (concentration)” value is listed as 10^-7 M. For the same compound, the “potency rank in vitE depletion test” value in series [3] (in words) was “the most potent compound”. Further, in series [3] (vitE depletion test, estimated), the “antioxidative activity relative to vitE” value is “about 100 times more potent than vitE”. Also, the “GSH level relative to solvent control” value in series [6] (1 μM compound + glutamate 10 mM, in words) is on record as “about one third of the solvent control level”. The GSH level in series [6] (1 μM compound + glutamate 10 mM) was 242 ± 54 pmol/well. For the same compound, in series [4] (1 μM, glutamate 10 mM, in words), the “protection from cell death” value is “fully protected”. The EC90 in series [1] came out at 320 nM.
With `CCNc1ccc2c(c1)SC1=NCCN12` [Compound 8], in series [1], the EC90 was 200000 nM.
`CCC(CC)Nc1ccc2c(c1)SC1=NCCN12` [Compound 9]: the EC90 in series [1] came out at 40000 nM.
Consider `CCCCNc1ccc2c(c1)SC1=NCCN12` [Compound 10], for which the EC90 in series [1] stood at 200000 nM.
Take `CCC(C)Nc1ccc2c(c1)SC1=NCCN12` (stereo not shown) [Compound 11]: the EC50 in series [3] came out at 224 nM. Also, the EC90 in series [1] is 40000 nM.
On to `CCCC(C)Nc1ccc2c(c1)SC1=NCCN12` (stereo not shown) [Compound 12], for which, in series [2], the “Level of intracellular peroxides” value amounted to 24 ± 1 rfu/μg protein. In series [3], this compound showed a concentration for a half-maximal effect (EC50) of 370 ± 169 nM. Besides, the IC50 in series [4] worked out at 29 ± 14 nM. Moreover, the EC90 in series [1] came out at 40000 nM.
As for `CCCCC(C)Nc1ccc2c(c1)SC1=NCCN12` (stereo not shown) [Compound 13], the “Level of intracellular peroxides” value in series [2] came out at 19 ± 1 rfu/μg protein. In addition, the EC50 in series [3] stood at 45 nM. In series [4], the IC50 was found to be 10 ± 5 nM. Further, the EC90 in series [1] was 8000 nM.
With `CC(C)(C)CNc1ccc2c(c1)SC1=NCCN12` [Compound 14], the EC90 in series [1] turned out to be 8000 nM.
As to `CCCN(CCC)c1ccc2c(c1)SC1=NCCN12` [Compound 15], the EC90 in series [1] was determined as 40000 nM.
For `CCCCCCNc1ccc2c(c1)SC1=NCCN12` [Compound 16, N-hexyl-2,3-dihydro-imidazo[2,1-b]benzothiazol-7-amine], in series [2], the “Level of intracellular peroxides” value was found to be 21 ± 1 rfu/μg protein. For the same compound, a half-maximal effect in series [3] (EC50) was put at 41 ± 18 nM. In series [4], the IC50 was determined as 5 ± 1 nM. Also, the EC90 in series [1] came to 1600 nM.
For `c1cc2c(cc1NC1C3CC4CC(C3)CC1C4)SC1=NCCN12` (stereo not shown) [Compound 17], the “Level of intracellular peroxides” value in series [2] turned out to be 19 ± 1 rfu/μg protein. The compound also showed a 50% effective concentration (EC50) in series [3] of 47 ± 19 nM. Further, in series [4], the IC50 was 12 ± 2 nM.
As for `Cc1cc(NC2CCCC2)c(C(C)C)c2c1N1CCN=C1S2` [Compound 18], the “Level of intracellular peroxides” value in series [2] came to 19 ± 1 rfu/μg protein. This compound displayed a concentration giving a half-maximal response (EC50) in series [3] of 126 nM. For the same compound, the IC50 in series [4] came to 25 ± 14 nM.
Consider `N[C@@H](CCC(=O)O)C(=O)O` [Glutamate, glutamate, reference compound], for which, in series [2] (glutamate 10 mM), the “increase in toxic intracellular peroxides” value is about 3 fold. Besides, the Intracellular peroxides in series [2] was found to be 205 ± 35 rfu/μg protein; in series [2] (listed as glutamate) it was 205 rfu/μg protein. Further, the GSH level in series [6] (glutamate 10 mM alone) turned out to be 277 ± 24 pmol/well; in series [6] (glutamate 10 mM alone, listed as glutamate), 277 pmol/well. Further, the “reduction in intracellular GSH level versus control” value in series [6] (glutamate 10 mM, 6~7 hr) is given as about 3 fold. Moreover, the cytotoxicity at 10000 µM in series [4] (48 h, read-out: LDH release, % of total) was 78 ± 7%; in series [4] (read-out: cell death) it was about 78%.
As for `C[C@]12N[C@H](Cc3ccccc31)c1ccccc12` [MK801, reference compound], in series [4] (NMDA antagonist, data not shown, in words), the “prevention of LDH release” value is listed as “not prevented”.
